Patent publication US20050272677A1, “Delivery of a substance to a pre-determined site” (priority 2002, published 2005)
Numbering of substitutions follows the chain as printed. In names and notes the source's numbering stands.

B1: E06/G22S (protein, UniProt P0A742 1-136, looked up, variant E6H G22S)
Large-conductance …: MSIIKHFREFAMRGNVVDLAVSVIIGAAFGKIVSSLVADIIMPPLGLLIGGIDFKQFAVTLRDAQGDIPAVVMHYGVFIQNVFDFLIVAFAIFMAIKLINKLNRKKEEPAAAPAPTKEEVLLTEIRDLLKEQNNRS
B2: R13H/G22S (protein, UniProt P0A742 1-136, looked up, variant R13H G22S)
Large-conductance …: B1 Large-conductance … with H6E, R13H
B3: R13H (protein, UniProt P0A742 1-136, looked up, variant R13H)
Large-conductance …: B1 Large-conductance … with H6E, R13H, S22G
B4: F10H/G22S (protein, UniProt P0A742 1-136, looked up, variant F10H G22S)
Large-conductance …: B1 Large-conductance … with H6E, F10H
B5: M12H (protein, UniProt P0A742 1-136, looked up, variant M12H)
Large-conductance …: B1 Large-conductance … with H6E, M12H, S22G
B6: M12H/G22S (protein, UniProt P0A742 1-136, looked up, variant M12H G22S)
Large-conductance …: B1 Large-conductance … with H6E, M12H
B7: F10H (protein, UniProt P0A742 1-136, looked up, variant F10H)
Large-conductance …: B1 Large-conductance … with H6E, F10H, S22G
B8: A11H/G22S (protein, UniProt P0A742 1-136, looked up, variant A11H G22S)
Large-conductance …: B1 Large-conductance … with H6E, A11H
B9: A11H (protein, UniProt P0A742 1-136, looked up, variant A11H)
Large-conductance …: B1 Large-conductance … with H6E, A11H, S22G

How the values were obtained:
[1] = Gelation experiment (gel formation in solvents); assay type: physicochemical; design: key to Gelation properties: g = gel; i = insoluble; p = precipitate; sol = soluble
Description: To obtain a gel or to thicken the solvent, the compound is mixed with the required solvent or a mixture of solvents in an amount between 0.01 and 50 wt. %, based on the weight of the composition. Typically, the dissolution of the components will be performed by heating (in some cases it may be helpful to homogenize the components, e.g., vortex) them together at temperatures of 20° C. to 200° C., preferably 50° C. to 150° C. Cooling these hot solutions to a preferred temperature in the range of −20° C. to 100° C., preferably 4° C. to 100° C. affords the gel or thickened solvent. […] In an alternative embodiment, the gelling agent is first dissolved in a polar or apolar solvent followed by the addition of another solvent or solvent mixture, thereby causing gelation to take place.
It will be understood that the use of the present gelling agents or thickeners to prepare a gel or to thicken a composition is also encompassed by the invention. As is well-known, gelling behavior of compounds or compositions is highly unpredictable. […] Preferably, the gelling phenomenon is thermoreversible.
In a typical gelation experiment, a carefully weighed amount of the dithienylcyclopentene derivative under investigation and 1 ml of the solvent are placed in a test tube, which is sealed and then heated until the compound is dissolved. The solution is allowed to cool to room temperature. […] The gelation process could be followed by UV-vis and CD spectroscopy as depicted in FIG. 58. At low concentrations (0.35 mM), compound D is dissolved in toluene. […] Increasing the concentration to 1.8 mM causes gelation of the solvent, which is accompanied by a change of the UV-visible spectrum, together with the appearance of a strong CD signal at 323 nm (FIG. 58, panels (a) and (c)). Similar changes in the UV-vis and CD spectrum are observed upon gelation of the 1.8 mM solution of D in toluene by cooling to a temperature below the sol-gel phase transition (from here on, referred to as gel(o)). From a plot of the increase of the CD signal versus the temperature, the sol-gel phase transition temperature of gel(o) was determined to be 29° C. for a 1.8 mM solution of D in toluene.

[2] = Gelation in the presence of surfactants and polymeric micelles; assay type: physicochemical; design: key: g = gel; i = insoluble; p = precipitate; sol = soluble
[3] = as above; assay type: physicochemical; design: key: G = gel; C = crystalline; G^a: ^a= not stable
[4] = test system: pB104 strain (MscL null E. coli); assay: Growth assay of MscL mutants on agar plates with or without IPTG; assay type: cell-based; design: key: ++++: growth equal to cells expressing wild-type MscL; growth is indicated by ++++ to −; growth is indicated by ++++ to −; growth is indicated by ++++ to −; −: an absence of growth; conditions: pB104 with Lac-inducible plasmid; for Growth on agar plates +IPTG: with IPTG; for Growth on agar plates −IPTG: without IPTG
Description: The constructs of the MscL-6His mutants were constructed using standard molecular biology techniques. The mutants were tested in the pB104 strain (MscL null E. coli) by a growth assay on agar plates with or without IPTG (K. Yoshimura et al., 1999, Biophys. J. 77:1960-1972).
The first phenotype (++) grows like the single G22S mutant.

Molecule	solvents gelated [1]	Growth on agar plates +IPTG [4]	Growth on agar plates −IPTG [4]	further results
CHex-Am-Met-Am-Borate	water and lower alcohols			
O=C(O)C(Cc1ccccc1)NC(=O)[C@H]1C[C@@H](C(=O)NC(Cc2ccccc2)C(=O)O)C[C@@H](C(=O)NC(Cc2ccccc2)C(=O)O)C1 (mixture of isomers) [10a, CHexAmPheOH (mixture of isomers)]	water			
racemic CHex-bisurea dihexylamine [5b]				Gelation properties ([1]; 1 N NaHCO3): sol; Gelation properties ([1]; 1 N NaOH): g; Gelation properties ([1]; 25% Ammonia): g; Gelation properties ([1]; buffer PH 5.7): sol; Gelation properties ([1]; buffer PH 6.3): sol; Gelation properties ([1]; buffer PH 7.2): g; Gelation properties ([1]; buffer PH 7.9): g; Gelation properties ([1]; water): g
CC(NC(=O)[C@H](Cc1ccccc1)NC(=O)[C@H]1C[C@@H](C(=O)N[C@@H](Cc2ccccc2)C(=O)N[C@H](C)C(=O)O)C[C@@H](C(=O)N[C@@H](Cc2ccccc2)C(=O)N[C@H](C)C(=O)O)C1)C(=O)O (stereo partly shown) [gelator 11, CHexAm(L)Phe(D)AlaOH]	water and lower alcohols			
CHex-Am-Phe-Am-Borate	water and lower alcohols			
CHex-Am-Ser(Bzl)-Am-Borate	water and lower alcohols			
O=C(NCCOCCO)[C@H](Cc1ccccc1)NC(=O)[C@H]1C[C@@H](C(=O)N[C@@H](Cc2ccccc2)C(=O)NCCOCCO)C[C@@H](C(=O)N[C@@H](Cc2ccccc2)C(=O)NCCOCCO)C1 [gelator 4, CHexAmPheNHCH2CH2OCH2CH2OH]	water and lower alcohols			Gelation properties ([2]; Pluronic P 105, 5 mg · ml^−1): p; Gelation properties ([2]; Pluronic P 105, 100 mg · ml^−1): p; Gelation properties ([3]; Nonionic (Lactose der.) < CMC): G; Gelation properties ([3]; Nonionic (Lactose der.) > CMC): G; Gelation properties ([3]; anionic (SDS) < CMC): G; Gelation properties ([3]; anionic (SDS) > CMC): G; Gelation properties ([3]; cationic (CTAB) < CMC): G; Gelation properties ([3]; cationic (CTAB) > CMC): G
O=C(O)CCNC(=O)[C@H](Cc1ccccc1)NC(=O)[C@H]1C[C@@H](C(=O)N[C@@H](Cc2ccccc2)C(=O)NCCC(=O)O)C[C@@H](C(=O)N[C@@H](Cc2ccccc2)C(=O)NCCC(=O)O)C1 [gelator 12, cHexAm(L)Phe(β)AlaOH]	water			
Cc1sc(C(=O)Nc2ccccc2)cc1C1=C(c2cc(C(=O)Nc3ccccc3)sc2C)CCC1 [Compound C, 1,2-Bis(5′-(anilinocarbonyl)-2′-methyl-thien-3′-yl) cyclopentene]	1-phenyloctane, toluene, n-butylether, benzene, tetralin			
COC(=O)[C@H](Cc1c[nH]cn1)NC(=O)[C@H](CCSC)NC(=O)[C@@H]1C[C@H](C(=O)NC(CCSC)C(=O)N[C@H](Cc2c[nH]cn2)C(=O)OC)C[C@H](C(=O)N[C@@H](CCSC)C(=O)N[C@@H](Cc2c[nH]cn2)C(=O)OC)C1 (stereo partly shown) [gelator 14, CHexAmMetHisOMe]	water			
COC(=O)C[C@H](NC(=O)[C@H]1C[C@@H](C(=O)N[C@@H](CC(=O)OC)C(=O)OC)C[C@@H](C(=O)N[C@@H](CC(=O)OC)C(=O)OC)C1)C(=O)OC [gelator 8, CHexAmAspOMe]	both organic solvents and water			
O=C(OCCO)[C@H](Cc1ccccc1)NC(=O)[C@H]1C[C@@H](C(=O)N[C@@H](Cc2ccccc2)C(=O)OCCO)C[C@@H](C(=O)N[C@@H](Cc2ccccc2)C(=O)OCCO)C1 [gelator 2, CHexAmPheOCH2CH2OH]	water and lower alcohols			Gelation properties ([3]; Nonionic (Lactose der.) < CMC): G^a; Gelation properties ([3]; Nonionic (Lactose der.) > CMC): G^a; Gelation properties ([3]; Pluronic P 105, 5 mg · ml^−1): g^a; Gelation properties ([3]; Pluronic P 105, 100 mg · ml^−1): g^a; Gelation properties ([3]; anionic (SDS) < CMC): G^a; Gelation properties ([3]; anionic (SDS) > CMC): G^a; Gelation properties ([3]; cationic (CTAB) < CMC): G^a; Gelation properties ([3]; cationic (CTAB) > CMC): G^a
COC(=O)CC[C@H](NC(=O)[C@H]1C[C@@H](C(=O)N[C@@H](CCC(=O)OC)C(=O)OC)C[C@@H](C(=O)N[C@@H](CCC(=O)OC)C(=O)OC)C1)C(=O)OC [gelator 7, CHexAmGluOMe]	both organic solvents and water			
CHexAmPheAmGluOH [gelator 13]	water			
O=C(NC(Cc1ccccc1)C(=O)O)C1CC(C(=O)NC(Cc2ccccc2)C(=O)O)CC(C(=O)NC(Cc2ccccc2)C(=O)O)C1 (single isomer, unassigned) [LLL diasteroisomer, CHexAmPheOH]	only gelates lower alcohols			
CHex-Am-Met-Am-EtOH	water			
Cc1sc(C(=O)N[C@H](C)C2CCCCC2)cc1C1=C(c2cc(C(=O)N[C@H](C)C3CCCCC3)sc2C)CCC1 [Compound E, 1,2-Bis(2′-methyl-5′-{(((R)-1-cyclohexylethyl)amino)carbonyl}thien-3′-yl)cyclopentene]	hexadecane, cyclohexane, 1-phenyloctane, toluene, n-butylether, benzene, tetralin, 1,4-dioxane, and n-butyl acetate			
O=C(N[C@@H](Cc1ccccc1)C(=O)O)[C@H]1C[C@@H](C(=O)N[C@H](Cc2ccccc2)C(=O)O)C[C@@H](C(=O)N[C@H](Cc2ccccc2)C(=O)O)C1 [10b, CHexAmPheOH (DDL)]	water			
CC(C)[C@H](NC(=O)[C@H]1C[C@@H](C(=O)N[C@H](C(=O)O)C(C)C)C[C@@H](C(=O)N[C@H](C(=O)O)C(C)C)C1)C(=O)O [CHex-Am-Val-OH]	water			
(1S,2S) CHex-bisurea dihexylamine [5a]				Gelation properties ([1]; 1 N NaHCO3): i; Gelation properties ([1]; 1 N NaOH): i; Gelation properties ([1]; 25% Ammonia): g; Gelation properties ([1]; buffer PH 5.7): sol; Gelation properties ([1]; buffer PH 7.2): p; Gelation properties ([1]; buffer PH 7.9): g; Gelation properties ([1]; water): g
B1		+++	++++	
B2		−	++++	
B3		+++	++++	
B4		+	++++	
B5		++++	++++	
B6		++	++++	
B7		++++	++++	
B8		++	++++	
B9		++++	++++	
